How the values were obtained:
[1] = biological target: Squalene monooxygenase (Homo sapiens, UniProt Q14534); experiment: Inhibitory activity against Squalene Epoxidase in pig liver; NI-No inhibitory effect at 400 uM; set-up: species or system Sus scrofa; conditions: target entry is the homologue from another species
[2] = biological target: T1, Lanosterol synthase (Rattus norvegicus, UniProt P48450); experiment: Inhibitory activity against Oxidosqualene-lanosterol cyclase in pig liver; NI-No inhibitory effect at 400 uM; set-up: species or system Sus scrofa; conditions: target entry is the homologue from another species
T1 sequence (P48450 whole entry): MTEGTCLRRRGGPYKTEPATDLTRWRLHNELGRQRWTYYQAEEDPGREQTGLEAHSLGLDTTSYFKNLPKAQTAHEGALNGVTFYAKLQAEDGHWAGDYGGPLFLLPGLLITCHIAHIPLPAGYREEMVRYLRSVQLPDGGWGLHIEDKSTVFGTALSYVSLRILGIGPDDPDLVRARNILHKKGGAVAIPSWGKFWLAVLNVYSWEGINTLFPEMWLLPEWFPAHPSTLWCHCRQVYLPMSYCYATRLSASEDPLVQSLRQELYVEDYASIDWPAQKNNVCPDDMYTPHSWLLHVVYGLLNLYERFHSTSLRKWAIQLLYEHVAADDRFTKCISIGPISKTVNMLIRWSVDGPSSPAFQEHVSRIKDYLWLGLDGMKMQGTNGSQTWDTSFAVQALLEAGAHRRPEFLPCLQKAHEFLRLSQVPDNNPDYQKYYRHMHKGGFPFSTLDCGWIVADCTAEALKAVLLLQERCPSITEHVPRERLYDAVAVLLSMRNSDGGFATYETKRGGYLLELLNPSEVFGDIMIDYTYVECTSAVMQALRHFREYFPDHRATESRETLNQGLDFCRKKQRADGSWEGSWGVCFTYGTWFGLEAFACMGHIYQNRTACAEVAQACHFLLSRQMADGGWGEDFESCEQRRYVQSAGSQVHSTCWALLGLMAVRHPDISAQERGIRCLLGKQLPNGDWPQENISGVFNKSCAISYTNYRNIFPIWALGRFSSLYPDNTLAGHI

Sequence of Squalene monooxygenase (Q14534 whole entry): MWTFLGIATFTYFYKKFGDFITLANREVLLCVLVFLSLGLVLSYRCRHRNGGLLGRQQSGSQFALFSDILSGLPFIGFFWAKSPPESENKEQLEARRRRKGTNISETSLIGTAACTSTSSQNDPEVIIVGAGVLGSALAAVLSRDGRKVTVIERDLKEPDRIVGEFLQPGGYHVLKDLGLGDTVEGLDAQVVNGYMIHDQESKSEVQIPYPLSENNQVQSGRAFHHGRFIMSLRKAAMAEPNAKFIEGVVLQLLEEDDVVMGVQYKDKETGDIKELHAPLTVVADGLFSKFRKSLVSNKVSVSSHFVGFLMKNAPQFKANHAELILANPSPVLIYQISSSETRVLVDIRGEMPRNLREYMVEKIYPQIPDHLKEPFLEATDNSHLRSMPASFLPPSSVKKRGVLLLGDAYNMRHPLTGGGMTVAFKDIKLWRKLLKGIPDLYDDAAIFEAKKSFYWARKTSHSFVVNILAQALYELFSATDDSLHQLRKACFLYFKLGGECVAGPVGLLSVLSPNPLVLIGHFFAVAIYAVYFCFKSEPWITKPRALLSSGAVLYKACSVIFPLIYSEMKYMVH

Compound | IC50 [1] | IC50 [2]
C#CCC/C(C)=C/CC/C(C)=C/CC/C=C(\C)CC/C=C(\C)CCC=C(C)C | No inhibition | –
C=C=CCC/C(C)=C/CC/C(C)=C/CC/C=C(\C)CC/C=C(\C)CCC=C(C)C | No inhibition | No inhibition

From ChEMBL document CHEMBL1124698, “Squalene analogues containing isopropylidene mimics as potential inhibitors of pig liver squalene epoxidase and oxidosqualene cyclase” (J Med Chem, 1989)
